Assay results as given in publication PMC6278353 (Molecules, 2018).

Experiments:
[1] = Stability of vancomycin in serum under various storage conditions (QC samples, HPLC-Q-trap-MS); format: in vitro ADME, human; details: serum at 4 °C and 25 °C for 24 h, after three freezing and thawing cycles and stored at −80 °C for 30 days; three concentrations
Method: The IS working solution was diluted with deionized water to give a final concentration of 100 ng/mL. Quality control (QC) samples were prepared in 100 μL of blank serum by adding 10 μL of serially diluted solutions of the substance to determine the limit of quantification, as well as 2 ng/mL (low), 20 ng/mL (medium), and 400 ng/mL (high) concentrations. The L, M, and H of QCs were analyzed at least in duplicate. All solutions were stored at −20 °C and brought to room temperature before use.
The chromatographic separation was performed on an Agilent ZORBAX SB-C18 (4.6 × 150 mm, 5 μm). The mobile phase consisted of water (containing 0.1% formic acid, v/v) and acetonitrile (containing 0.1% formic acid, v/v) and the flow rate was set at 0.5 mL/min. An isocratic elution was performed with 30% of acetonitrile. The total run time was 8 min. The injection volume was 10 μL. […]
The pretreatment followed for all samples was 10 μL of the IS was added to 20 μL of the standard and unknown serum samples and mixed vigorously for 20 s. […] Two-hundred microliters of mobile phase was added to the resulting residue and vortexed for 1 min; 100 μL was analyzed.
For the bench-top stability during handing, QC samples were prepared and kept room temperature (25 °C) for 6 h. […] Stability of sample in autosampler was determined by analyzing the targets after kept in an autosampler at room temperature for 12 h.

[2] = Steady-state trough serum vancomycin concentration in DFI patients and nondiabetic patients with pneumonia; format: in vivo, human; details: 1g q12h; for Trough Concentration of vancomycin: mean ± SD, SD
Method: Clinical samples were collected at Air Force General Hospital, PLA. […] Human blank serum was obtained from healthy blood donors not using vancomycin (Air Force General Hospital, PLA.). The study was approved by the hospital ethics committee. Every patient was given a sufficient description of the study and signed an informed consent prior to the study.
The pretreatment followed for all samples was 10 μL of the IS was added to 20 μL of the standard and unknown serum samples and mixed vigorously for 20 s. Five-hundred microliters of acetonitrile was added, vortexed for 1 min, and centrifuged for 6 min at 12,000 rpm. After transferring the supernatant to a fresh centrifuge tube, it was evaporated to dryness under a stream of nitrogen at room temperature. Two-hundred microliters of mobile phase was added to the resulting residue and vortexed for 1 min; 100 μL was analyzed.
Fifty diabetes mellitus type 2 patients with known or suspected Gram-positive DFI (Wagner score grade 3/4, equivalent to Texas classification of at least B3), and 50 nondiabetic patients with pneumonia requiring antibiotic therapy from 2014 to 2016 were included. […] The estimated ClCr was calculated from serum creatinine using the Cockcroft-Gault formula [29]. CrCl = (140-age in years) × body weight in kg/(serum creatinine in […]) × 0.85 for females). Statistical analysis was performed by SPSS 25.0.

Compound: CN[C@H](CC(C)C)C(=O)N[C@H]1C(=O)N[C@@H](CC(N)=O)C(=O)N[C@H]2C(=O)N[C@H]3C(=O)N[C@H](C(=O)N[C@H](C(=O)O)c4cc(O)cc(O)c4-c4cc3ccc4O)[C@H](O)c3ccc(c(Cl)c3)Oc3cc2cc(c3O[C@@H]2O[C@H](CO)[C@@H](O)[C@H](O)[C@H]2O[C@H]2C[C@](C)(N)[C@H](O)[C@H](C)O2)Oc2ccc(cc2Cl)[C@H]1O [vancomycin, Vancomycin]
- Stability in serum (in words) [1]: stable
- Trough Concentration of vancomycin ([2]; DFI group (n = 50), type 2 diabetes patients): 8.20 ± 2.83 µg/mL
- Trough concentration of vancomycin, range ([2]; DFI patients (n = 50)): 4.80 to 14.2 µg/mL
- Trough Concentration of vancomycin ([2]; Nondiabetic group (n = 50), pneumonia patients): 15.8 ± 5.43 µg/mL
- Trough concentration of vancomycin, range ([2]; nondiabetic patients (n = 50)): 8.60 to 19.5 µg/mL
